Earlier results on five compounds are cited in patent US20210077514A1, “Nutraceutical Composition for Improving Overall Health” (priority 2019, published 2021).

The conditions of data set [1]: aged mice, one week's treatment.
Test in data set [2]: not given
The source holds these as a separate data set.

Test in data set [3]: not given
The source holds these as a separate data set.

The conditions of data set [4]: AD-model mice.
The conditions of data set [5]: in vivo.
The conditions of data set [6]: aged mice.
For data set [7] the following is noted: FXN-KO mouse.
For a further data set, the system named is photoreceptor. The note with it: in vivo.
For data set [8] the following is noted: aging mice, long-term treatment.
Data set [9] relates to superoxide dismutase, thioredoxin reductase, paraoxonase. The note with it: oxidative-induced rabbits, diet supplement.
For a further data set, the system named is lipid peroxidation. Conditions: ethanol induced gastric ulcer rats and skin cancer rats; astaxanthin and its esters.
The conditions of data set [10]: young healthy adult female human subjects.
The conditions of data set [11]: diabetic mice vs control group.
For data set [12] the following is noted: spontaneously hypertensive corpulent rats; mice on high fat plus high fructose diets.
For data set [13] the following is noted: 0.08% astaxanthin fed, vs control group.
For data set [14] the following is noted: compared to canthaxanthin and β-carotene.
Test in data set [15]: not given
The source holds these as a separate data set.

In another data set the test system is senescent cells. The note with it: H2O2-induced, via activation of AMPK pathway.
Data set [16] has as its system MCF-7 breast cancer cells.
For data set [17] the following is noted: in vivo. This is another data set of the same source.
The conditions of data set [18]: chronic heart failure patients.
The subject of another data set is adipocytes. The note with it: mouse, in vivo.
In the next data set the test system is HepG2 cells. The note with it: HepG2 cells and primary hepatocytes.
For data set [19] the following is noted: patients with T2DM.
The conditions of data set [20]: from the liver into the bile.
The test system of data set [21] is diploid fibroblasts and mesenchymal stem cells.
The conditions of data set [22]: 850 mg twice daily, mean follow-up ~3 years.
Test in data set [23]: not given
The source holds these as a separate data set.

For data set [24] the following is noted: after 3 years.
For data set [25] the following is noted: type 2 diabetes and mild to moderate depression.
The conditions of data set [26]: mouse model.
For data set [27] the following is noted: 8-10 years after therapy.

Like-named read-outs stand apart in the source and are kept apart here.

In the case of `NC(=O)c1ccc[n+]([C@@H]2O[C@H](COP(=O)([O-])O)[C@@H](O)[C@H]2O)c1` [Nicotinamide Mononucleotide, nicotinamide mononucleotide], the “homeostasis of mitochondria and biochemical markers of muscle-health” value (22 months old mice, to level of six months old mice) is given as “restore the homeostasis of mitochondria”. In addition, the age-related physiological declines result (old mice) is listed as “reduce the age-related physiological declines”. Moreover, the “cells after DNA damage repair” value in data set [1] is on record as “indistinguishable from the cells of the young mice”. In addition, the “impaired tolerance of glucose” value in data set [2] (only one dose) was “sufficient in normalizing the impaired tolerance of the glucose”. The “levels of NAD+” value in data set [2] (over sixty minutes) was “significant rises within the levels of NAD+”. Besides, in data set [3] (in vivo), the intolerance of glucose entry is listed as “reversal of the intolerance of glucose”. For the same compound, the “levels of NAD+” value in [3] (liver and muscle) was “significantly increased”. Also, the “death rate of brain cell” value in the data set with brain cell is recorded as “lower the death rate of brain cell”. Further, in data set [4], the cognition result is given as “restore cognition within AD-model mice”. Further, in data set [5], the “NAD+ levels within the heart” value is “increase the NAD+ levels within the heart” and the “protection of heart from I/R injuries” value is “protect the heart from injuries of I/R”. In addition, in data set [6], the aortic stiffness entry was “normalizing the aortic stiffness”. For the same compound, in [7], the cardiac function result is listed as “restored near the normal levels”. Besides, the degeneration of photoreceptor entry in the data set with photoreceptor is reported as “prevent degeneration of photoreceptor”.

Consider `CC1=C(/C=C/C(C)=C/C=C/C(C)=C/C=C/C=C(C)/C=C/C=C(C)/C=C/C2=C(C)C(=O)[C@@H](O)CC2(C)C)C(C)(C)C[C@H](O)C1=O` [astaxanthin], for which, in [8], the “age-related oxidative stress and inflammatory response” value is “prevented the accumulation of age-related oxidative stress and inflammatory response”. Moreover, in data set [9], the “paraoxonase activity in serum” value was “inhibited”; the “superoxide dismutase and thioredoxin reductase activity in serum” value is “enhanced activity of superoxide dismutase and thioredoxin reductase”. Further, in the data set with lipid peroxidation, the anti-lipid peroxidation activity was 80%. Also, the “DNA oxidative damage biomarker” value in [10] is reported as “reduced the DNA oxidative damage biomarker”. Moreover, the urinary albumin level result in data set [11] was “significantly lower than the control group”. For the same compound, the insulin sensitivity result in data set [12] is listed as “Improved insulin sensitivity”. Also, in [13], the “heart mitochondrial membrane potential and contractility index” value was “higher heart mitochondrial membrane potential and contractility index”. Moreover, the antitumor activity entry in [14] is given as “significant antitumor activity”. Also, the “activity of natural killer cells” value in [15] (eight week supplementation) was “improved activity of natural killer cells”. For the same compound, in data set [15] (in vivo), the “blood levels of astaxanthin” value was “increased blood levels of astaxanthin”.

Regarding `COc1ccc2cc3[n+](cc2c1OC)CCc1cc2c(cc1-3)OCO2` [berberine], the development of senescence result in the data set on senescent cells was “significantly prevented the development of senescence”. Also, the “proliferation of MCF-7 breast cancer cells” value in data set [16] is “inhibits the proliferation”. Moreover, the “serum cholesterol, triglycerides and LDL-C” value in data set [17] was “reduced serum cholesterol, triglycerides and LDL-C”. In [18], the “frequency and complexity of ventricular premature complexes” value is “decreased the frequency and complexity of ventricular premature complexes”; the “left ventricular ejection fraction” value is “increased the left ventricular ejection fraction”. Further, the adipocytes entry in the data set on adipocytes is listed as “shrunk adipocytes”. Also, in the data set on HepG2 cells, the “cholesterol and triglyceride synthesis” value is “inhibit cholesterol and triglyceride synthesis”. For the same compound, the “alanine and aspartate transaminase levels” value in [19] was “reduces alanine and aspartate transaminase levels”. Also, in [20], the cholesterol excretion result is reported as “increases cholesterol excretion from the liver into the bile”.

`CN(C)C(=N)N=C(N)N` [metformin]: the “aging in human cells” value in data set [21] (chronic low-dose treatment) is “delays aging in human cells”. Also, the “expression of GPx7” value in [21] (low-dose treatment, by activating Nrf2) is listed as “upregulates the expression of endoplasmic reticulum-localized GPx7”. Also, in [22], the “reduction of incidence of T2DM compared to placebo” value is 31%. The “reduction of likelihood of CVD” value in data set [23] (otherwise healthy individuals) is listed as 6%; in data set [23] (those at high cardiovascular risk), 48%; in data set [23] (those at risk of frailty) it was 18%. Moreover, the “body weight, LDL-cholesterol, atherosclerosis progression” value in data set [24] is recorded as “reductions in body weight, LDL-cholesterol”. Moreover, in data set [24], the “carotid artery intima-media thickness (primary outcome)” value was “no difference in the primary outcome”. Moreover, the depressive symptoms entry in data set [25] is “improved depressive symptoms”. In addition, the “lifespan and health span” value in data set [26] is “extends both lifespan and health span”. Also, the lifespan entry in the data set with nematodes was “extends the lifespan of nematodes”. In addition, the “cognitive function, impact of long-term use” value in data set [27] was “did not show negative impact”.

For `Oc1ccc(C=Cc2cc(O)cc(O)c2)cc1` [resveratrol], the uptake of glutamate entry in the data set with glial cells was “increase the uptake of glutamate”. Besides, in the data set on leukaemia cells, the “growth rate of leukaemia cells” value was “stop the growth rate of leukaemia cells”.
